According to patent US20260306429A1, “COMPOSITION FOR REDUCING METHANE PRODUCTION AND IMPROVING NITROGEN UTILIZATION EFFICIENCY OF RUMINANT ANIMALS COMPRISING HALOACETAMIDE AS ACTIVE INGREDIENT” (CHUNGANG UNIVERSITY INDUSTRY ACADEMIC COOPERATION FOUNDATION, priority 2024, published 2026):

Legend:
Fibrobacter succinogenes = assay: qPCR absolute quantification of Fibrobacter succinogenes after in vitro rumen incubation; type: cell-based; conditions: 0.2 mmol/L, 24 h
Protocol: (§1) Rumen fluid was sampled from Hanwoo cows at the Nonghyup Research Farm in Anseong, Gyeonggi Province, and mixed with buffer at a ratio of 1:2 within 1 hour of sampling. Oat hay was used as the forage, and pelleted feed for the middle fattening period was used as the concentrate. After grinding, the forage and concentrate were mixed at a ratio of 1:1 after passing through a 1-mm screen. 50 ml of culture medium was dispensed into 0.5 g of dry matter, and the control group and the five experimental groups (acrylamide, chloroacetamide, glycolamide, iodoacetamide, and propionamide) were each incubated for 24 hours with five replicates. The control group was incubated in 50 mL of culture medium, whereas the experimental groups were incubated in 49.9 mL of culture medium plus 0.1 mL of deionized water. For the five experimental groups, the supplementation level of each amide was set to 0.2 mmol/L (final concentration), and the amounts added were 1.4216 mg/g for acrylamide, 1.8702 mg/g for 2-chloroacetamide, 1.4618 mg/g for propionamide, 1.5014 mg/g for glycolamide, and 3.6992 mg/g for iodoacetamide.
(§2) Gas pressure was measured at 0, 3, 6, 12, and 24 hours (gas collection intervals), and the gas released during each measurement was collected to determine the total gas production and methane production up to the final 24 hours. After completing the 24-hour incubation, pH, ammonia nitrogen (NH3—N), dry matter digestibility, neutral detergent fiber digestibility, volatile fatty acids (VFA), and the microbiome were analyzed.
(§3) Metagenomic DNA was extracted using the RBB+C method, followed by qPCR analysis and microbiome analysis. Microbial functions were predicted using PICRUSt2. Taxonomic drivers of differentially enriched MetaCyc pathways were identified using Fish Taco (Functional Shifts' Taxonomic Contributor).
(§4) Data conforming to normal distribution and homogeneity of variance were analyzed using the GLIMMIX procedure of SAS and Tukey's HSD test. […] Differences in the overall bacteriota and their functional profiles were analyzed using PERMANOVA. Differentially abundant microbial biomarkers were identified using multivariable association analysis with the MaAsLin2 R package, based on relatively abundant bacterial taxa and predicted microbial functions.
(§5) For the control group and the five experimental groups (acrylamide, chloroacetamide, glycolamide, iodoacetamide, and propionamide), the effects of the amide compounds on the absolute quantification of total bacteria, methanogens, protozoa, and specific cellulolytic bacterial species (Fibrobacter succinogenes, Ruminococcus flavefaciens, Ruminococcus albus, and Prevotella ruminicola) are presented in Table 3 below as quantitative real-time PCR data.

Total protozoa = assay: qPCR absolute quantification of protozoa after in vitro rumen incubation; type: cell-based, rumen fluid of Hanwoo cows; conditions: 0.2 mmol/L, 24 h
Protocol: as §1, §2, §3, §4, §5

rumen microbiome = assay: Alpha-diversity measurements of the rumen microbiome; type: cell-based, rumen fluid of Hanwoo cows; conditions: 0.2 mmol/L, 24 h
Protocol: as §1, §2, §3, §4
The alpha-diversity measurements for the control group and the five experimental groups (acrylamide, chloroacetamide, glycolamide, iodoacetamide, and propionamide) are presented in Table 4 below.

Total methanogen = assay: qPCR absolute quantification of methanogens after in vitro rumen incubation; type: cell-based, rumen fluid of Hanwoo cows; conditions: 0.2 mmol/L, 24 h
Protocol: as §1, §2, §3, §4, §5

[1] = test system: Ruminococcus flavefaciens; assay: qPCR absolute quantification of Ruminococcus flavefaciens after in vitro rumen incubation; type: cell-based; conditions: 0.2 mmol/L, 24 h
Protocol: as §1, §2, §3, §4, §5

Prevotella ruminicola = assay: qPCR absolute quantification of Prevotella ruminicola after in vitro rumen incubation; type: cell-based; conditions: 0.2 mmol/L, 24 h
Protocol: as §1, §2, §3, §4, §5

Ruminococcus albus = assay: qPCR absolute quantification of Ruminococcus albus after in vitro rumen incubation; type: cell-based; conditions: 0.2 mmol/L, 24 h
Protocol: as §1, §2, §3, §4, §5

rumen fluid = assay: In vitro incubation of rumen fluid: digestibility, fermentation characteristics, gas and methane production, VFA; type: cell-based, Hanwoo cows; conditions: 0.2 mmol/L; for CH4 (methane production per gram of degraded dry matter) / CH4 (methane production) / TGP (total gas production): up to 24 h
Protocol: as §1, §2, §4

Total bacteria = assay: qPCR absolute quantification of total bacteria after in vitro rumen incubation; type: cell-based, rumen fluid of Hanwoo cows; conditions: 0.2 mmol/L, 24 h
Protocol: as §1, §2, §3, §4, §5

rumen microbiota = assay: Differentially abundant genera and species in response to haloacetamide treatment; taxonomic drivers; type: cell-based, rumen fluid of Hanwoo cows; conditions: in words
Protocol: Rumen fluid was sampled from Hanwoo cows at the Nonghyup Research Farm in Anseong, Gyeonggi Province, and mixed with buffer at a ratio of 1:2 within 1 hour of sampling. Oat hay was used as the forage, and pelleted feed for the middle fattening period was used as the concentrate. After grinding, the forage and concentrate were mixed at a ratio of 1:1 after passing through a 1-mm screen. 50 ml of culture medium was dispensed into 0.5 g of dry matter, and the control group and the five experimental groups (acrylamide, chloroacetamide, glycolamide, iodoacetamide, and propionamide) were each incubated for 24 hours with five replicates. […]
as §2, with “analyzed. […]” for “analyzed.”
Data conforming to normal distribution and homogeneity of variance were analyzed using the GLIMMIX procedure of SAS and Tukey's HSD test. […] Differences in the overall bacteriota and their functional profiles were analyzed using PERMANOVA. […]

[2] = in words; cited from earlier work

With `NC(=O)CO` [GA, glycolamide] the “Fibrobacter succinogenes (absolute quantification, qPCR)” value (“Fibrobacter succinogenes” for short) (Fibrobacter succinogenes) was 9.36^C, the “Total protozoa (absolute quantification, qPCR)” value (“Total protozoa” for short) (Total protozoa) was 9.69 and the Chao1 (rumen microbiome) was 436.4^AB. For the same compound, the Evenness (rumen microbiome) was 0.8956^A, the Observed features (rumen microbiome) was 435.6^AB and the Shannon (rumen microbiome) was 7.8466^A. The Simpson (rumen microbiome) was 0.9927^A, the “Total methanogen (absolute quantification, qPCR)” value (shortened to “Total methanogen”) (Total methanogen) was 8.33^A and the “Ruminococcus flavefaciens (absolute quantification, qPCR)” value (from here on “Ruminococcus flavefaciens”) [1] was 8.29^B. The “Prevotella ruminicola (absolute quantification, qPCR)” value (from here on “Prevotella ruminicola”) (Prevotella ruminicola) was 9.42^C, the “Ruminococcus albus (absolute quantification, qPCR)” value (from here on “Ruminococcus albus”) (Ruminococcus albus) was 7.71^B and the “A:P ratio (acetate:propionate ratio)” value (rumen fluid; 24 h) was 2.92^A. The “DMD (dry matter digestibility)” value (rumen fluid; 24 h) was 79.40^A %, the “NDFD (neutral detergent fiber digestibility)” value (shortened to “NDFD”) (rumen fluid; 24 h) was 40.82^B % and the “NH3—N (ammonia nitrogen)” value (rumen fluid; 24 h) was 14.76^AB mg/dL. For the same compound, the pH (rumen fluid; 24 h) was 6.22, the Acetate (rumen fluid; 24 h, VFA composition) was 60.74^A % and the Butyrate (rumen fluid; 24 h, VFA composition) was 14.30^B %. For the same compound, the Isobutyrate (rumen fluid; 24 h, VFA composition) was 0.93%, the Isovalerate (rumen fluid; 24 h, VFA composition) was 1.32^A % and the Propionate (rumen fluid; 24 h, VFA composition) was 20.83^C %. For the same compound, the Valerate (rumen fluid; 24 h, VFA composition) was 1.88^AB %, the Acetate (rumen fluid; 24 h, concentration) was 37.24^ABC mM and the Butyrate (rumen fluid; 24 h, concentration) was 8.74^B mM. For the same compound, the Isobutyrate (rumen fluid; 24 h, concentration) was 0.57^AB mM, the Isovalerate (rumen fluid; 24 h, concentration) was 0.80^A mM and the Propionate (rumen fluid; 24 h, concentration) was 12.77^B mM. The “Total VFA (total volatile fatty acids)” value (rumen fluid; 24 h, concentration) was 61.27^AB mM, the Valerate (rumen fluid; 24 h, concentration) was 1.15 mM and the “CH4 (methane production per gram of degraded dry matter)” value (rumen fluid) was 26.85^B mL/g dDM. The “CH4 (methane production)” value (rumen fluid) was 10.65^B mL, the “TGP (total gas production)” value (rumen fluid) was 141.74^A mL and the “Total bacteria (absolute quantification, qPCR)” value (from here on “Total bacteria”) (Total bacteria) was 10.25^B.
In the case of `NC(=O)CI` [IA, iodoacetamide], the “Fibrobacter succinogenes” value (Fibrobacter succinogenes) is reported as 9.79^A, the “Total protozoa” value (Total protozoa) is reported as 9.68 and the Chao1 (rumen microbiome) is reported as 525.3^A. For the same compound, the Evenness (rumen microbiome) was 0.8895^AB, the Observed features (rumen microbiome) was 520.6^A and the Shannon (rumen microbiome) was 8.0215^A. For the same compound, the Simpson (rumen microbiome) was 0.9925^A, the “Total methanogen” value (Total methanogen) was 7.74^B and the differentially abundant bacteria (rumen microbiota) was “increases bacteria belonging to the genera Fibrobacter, Pseudobutyrivibrio, and Treponema, and the species Ruminococcus flavefaciens”. For the same compound, the “Ruminococcus flavefaciens” value [1] was 8.51^A, the “Prevotella ruminicola” value (Prevotella ruminicola) was 9.72^A and the “Ruminococcus albus” value (Ruminococcus albus) was 7.83^AB. For the same compound, the “A:P ratio (acetate:propionate ratio)” value (rumen fluid; 24 h) was 1.89^C, the “DMD (dry matter digestibility)” value (rumen fluid; 24 h) was 76.18^B % and the “NDFD” value (rumen fluid; 24 h) was 47.83^A %. The “NH3—N (ammonia nitrogen)” value (rumen fluid; 24 h) was 13.16^B mg/dL, the pH (rumen fluid; 24 h) was 6.19 and the Acetate (rumen fluid; 24 h, VFA composition) was 52.09^C %. The Butyrate (rumen fluid; 24 h, VFA composition) was 16.51^A %, the Isobutyrate (rumen fluid; 24 h, VFA composition) was 0.76% and the Isovalerate (rumen fluid; 24 h, VFA composition) was 1.02^C %. The Propionate (rumen fluid; 24 h, VFA composition) was 27.56^A %, the Valerate (rumen fluid; 24 h, VFA composition) was 2.06^A % and the Acetate (rumen fluid; 24 h, concentration) was 29.92^C mM. The Butyrate (rumen fluid; 24 h, concentration) was 9.45^AB mM, the Isobutyrate (rumen fluid; 24 h, concentration) was 0.43^C mM and the Isovalerate (rumen fluid; 24 h, concentration) was 0.58^B mM. For the same compound, the Propionate (rumen fluid; 24 h, concentration) was 15.80^A mM, the “Total VFA (total volatile fatty acids)” value (rumen fluid; 24 h, concentration) was 59.25^B mM and the Valerate (rumen fluid; 24 h, concentration) was 1.18 mM. The methane-reducing effects (rumen fluid; 24 h, in words, from Table 1) was “excellent methane-reducing effects”, the “CH4 (methane production per gram of degraded dry matter)” value (rumen fluid) was 0.60^D mL/g dDM and the “CH4 (methane production)” value (rumen fluid) was 0.23^D mL. The “TGP (total gas production)” value (rumen fluid) was 129.37^B mL and the “Total bacteria” value (Total bacteria) was 10.38^A.
In the case of `CCC(N)=O` [PA, propionamide], the “Fibrobacter succinogenes” value (Fibrobacter succinogenes) is reported as 9.35^C, the “Total protozoa” value (Total protozoa) is reported as 9.79 and the Chao1 (rumen microbiome) is reported as 406.2^AB. For the same compound, the Evenness (rumen microbiome) was 0.8873^AB, the Observed features (rumen microbiome) was 405.6^AB and the Shannon (rumen microbiome) was 7.6692^A. For the same compound, the Simpson (rumen microbiome) was 0.9913^AB, the “Total methanogen” value (Total methanogen) was 8.42^A and the “Ruminococcus flavefaciens” value [1] was 8.31^B. The “Prevotella ruminicola” value (Prevotella ruminicola) was 9.45^C, the “Ruminococcus albus” value (Ruminococcus albus) was 7.71^B and the “A:P ratio (acetate:propionate ratio)” value (rumen fluid; 24 h) was 2.96^A. For the same compound, the “DMD (dry matter digestibility)” value (rumen fluid; 24 h) was 78.34^AB %, the “NDFD” value (rumen fluid; 24 h) was 41.80^B % and the “NH3—N (ammonia nitrogen)” value (rumen fluid; 24 h) was 16.50^A mg/dL. The pH (rumen fluid; 24 h) was 6.22, the Acetate (rumen fluid; 24 h, VFA composition) was 60.97^A % and the Butyrate (rumen fluid; 24 h, VFA composition) was 14.31^B %. For the same compound, the Isobutyrate (rumen fluid; 24 h, VFA composition) was 0.92%, the Isovalerate (rumen fluid; 24 h, VFA composition) was 1.30^AB % and the Propionate (rumen fluid; 24 h, VFA composition) was 20.64^C %. For the same compound, the Valerate (rumen fluid; 24 h, VFA composition) was 1.86^AB %, the Acetate (rumen fluid; 24 h, concentration) was 38.55^AB mM and the Butyrate (rumen fluid; 24 h, concentration) was 9.04^AB mM. The Isobutyrate (rumen fluid; 24 h, concentration) was 0.58^AB mM, the Isovalerate (rumen fluid; 24 h, concentration) was 0.82^A mM and the Propionate (rumen fluid; 24 h, concentration) was 13.04^B mM. The “Total VFA (total volatile fatty acids)” value (rumen fluid; 24 h, concentration) was 63.20^AB mM, the Valerate (rumen fluid; 24 h, concentration) was 1.17 mM and the “CH4 (methane production per gram of degraded dry matter)” value (rumen fluid) was 28.32^AB mL/g dDM. For the same compound, the “CH4 (methane production)” value (rumen fluid) was 11.09^AB mL, the “TGP (total gas production)” value (rumen fluid) was 143.63^A mL and the “Total bacteria” value (Total bacteria) was 10.27^B.
For `BrC(Br)Br` [bromoform], the toxicity / safety [2] is listed as “carcinogenic substance”.
